Assay results as given in patent US7087430B2, “Human VNO cDNA libraries” (Pherin Pharmaceuticals, Inc., priority 2000, dated 2006).

Legend:
female human VNO cell = assay: Electrophysiological membrane currents in cultured human VNO cells; format: cell-based
Text: FIG. 1 is an electrophysiological trace showing the effects of pertussis toxin on membrane currents induced by a vomeropherin.
FIG. 1C indicates when the cells were exposed to ADO (i.e., ADO pulses).
PTX uncouples receptors from their heterotrimeric G proteins and thereby blocks signal transduction. Sensitivity to PTX is an accepted marker for pathways involving G protein-coupled receptors that decrease intracellular CAMP, regulate ion channels or activate phospholipases (i.e., couple to Gi or G0). (For a review, see Simon et al., (1991) Science 252:802–808.) We have also implicated a specific type of ion channel in the response of human VNO cells to vomeropherins. […] However, as noted above, cultured VNO cells are of limited value as a screening tool due to the need to continually isolate new cells. Thus, construction of a cDNA library was desired in order to clone and express pheromone receptors in a cell line.
As noted above, […] data (FIG. 1) indicate that cells isolated from the VNO of human volunteers respond electrophysiologically to a vomeropherin via a PTX-sensitive pathway, a hallmark of G protein-coupled receptor signaling. Thus, we anticipated that components of the pathway such as G proteins (e.g., Gi and G0), adenylyl cyclase (e.g., type 3 and 7), and various ion channels are expressed in these cells. We assayed for expression of these proteins in the VNO by screening our library for cDNA clones of the corresponding mRNAs. Knowledge of the signaling components expressed in VNO neurons is essential to express the receptors functionally in tissue culture cells for high throughput drug screening assays.

human VNO = conditions: cited from earlier work
human brain = conditions: human volunteers, delivered non-specifically to the nasal cavity, no detectable odor (Sobel et al. 1999); cited from earlier work

**Q.** For pertussis toxin, which “effect on ADO-induced inward currents” value (female human VNO cell; cell incubated with 100 ng/ml PTX, FIG. 1B) is on record?
**A.** Its value is “blocking the inward currents”.

**Q.** What about the “effect on electrophysiological response to a vomeropherin” value (female human VNO cell; cultured human VNO neuroepithelial cells, FIG. 1) of the same compound?
**A.** Its value is “blocks the electrophysiological response to a vomeropherin”.

**Q.** Which results are given for `C[C@@]12C=CC[C@H]1[C@@H]1CCC3=CC(=O)CC[C@]3(C)[C@H]1CC2` [androstadienone, androsta-4,16-dien-3-one]?
**A.** inward membrane currents induced by vomeropherin (female human VNO cell; 10^−7M, human VNO cell, FIG. 1A): inward currents induced; physiological responses on administration to the human VNO (human VNO): induce bradycardia, bradypnea, increases in core body temperature, and other physiological responses

**Q.** Which “physiological responses on administration to the human VNO” value (human VNO) does the source give for `C[C@@]12C=CC[C@H]1[C@@H]1CCc3cc(O)ccc3[C@H]1CC2` [estra-1,3,5(10),16-tetraen-3-ol] here?
**A.** Its value is “induce bradycardia, bradypnea, increases in core body temperature, and other physiological responses”.

**Q.** For `CC(=O)Oc1ccc2c(c1)CC[C@@H]1[C@@H]2CC[C@]2(C)C=CC[C@@H]12` [estra-1,3,5(10),16-tetraen-3yl acetate], which “brain activation by fMRI” value (human brain) is on record?
**A.** Its value is “dose-dependent activation of the anterior medial thalamus, the inferior frontal gyrus, and other regions of the human brain”.

**Q.** And the “physiological responses in vivo by site of application” value (human VNO; human subjects, VNO versus olfactory or respiratory epithelium (Monti-Bloch et al. 1994))?
**A.** The value was “induces physiological responses in vivo only when applied specifically to the VNO”.
